Reference: patent US20080207616A1, “Quinoxalines as B Baf Inhhibitors” (AstraZeneca AB, priority 2004, published 2008)

Biological target: T1, human recombinant, purified wild type His-B-Raf protein kinase (Homo sapiens, UniProt P15056)
T1 construct: His
Test: B-Raf In Vitro ELISA Assay
Type: biochemical
Conditions: phosphorylation of MEK1; 2.5 nM B-Raf, 0.15 μM MEK1, 10 μM ATP; 1 hour preincubation at 25° C.
Procedure: B-Raf In Vitro ELISA Assay
Activity of human recombinant, purified wild type His-B-Raf protein kinase was determined in vitro using an enzyme-linked immunosorbent assay (ELISA) assay format, which measures phosphorylation of the B-Raf substrate, human recombinant, purified His-derived (detagged) MEK1. The reaction utilized 2.5 nM B-Raf, 0.15 μM MEK1 and 10 μM adenosine triphosphate (ATP) in 40 mM N-(2-Hydroxyethyl)piperazine-N′-(2-ethanesulfonic acid hemisodium salt (HEPES), […] 1,4-Dithio-DL-threitol (DTT), 10 mM MgCl2, 1 mM ethylenediaminetetraacetic acid (EDTA) and 0.2 M NaCl (1×HEPES buffer), with or without compound at various concentrations, in a total reaction volume of 25 μl in 384 well plates. B-Raf and compound were preincubated in 1×HEPES buffer for 1 hour at 25° C. Reactions were initiated with addition of MEK1 and ATP in 1× HEPES buffer and incubated at 25° C. for 50 minutes and reactions stopped by addition of 10 μl 75 mM EDTA (final concentration […]) in 1×HEPES buffer. 5 μl of the assay mix was then diluted 1:20 into 50 mM EDTA in 1×HEPES buffer, transferred to 384 well black high protein binding plates and incubated overnight at 4° C. […] Blue fluorescent product was detected at excitation 325 nm and emission 420 nm using a TECAN Ultra plate reader. Data was graphed and IC50s calculated using Excel Fit (Microsoft).

T1 sequence (P15056 whole entry): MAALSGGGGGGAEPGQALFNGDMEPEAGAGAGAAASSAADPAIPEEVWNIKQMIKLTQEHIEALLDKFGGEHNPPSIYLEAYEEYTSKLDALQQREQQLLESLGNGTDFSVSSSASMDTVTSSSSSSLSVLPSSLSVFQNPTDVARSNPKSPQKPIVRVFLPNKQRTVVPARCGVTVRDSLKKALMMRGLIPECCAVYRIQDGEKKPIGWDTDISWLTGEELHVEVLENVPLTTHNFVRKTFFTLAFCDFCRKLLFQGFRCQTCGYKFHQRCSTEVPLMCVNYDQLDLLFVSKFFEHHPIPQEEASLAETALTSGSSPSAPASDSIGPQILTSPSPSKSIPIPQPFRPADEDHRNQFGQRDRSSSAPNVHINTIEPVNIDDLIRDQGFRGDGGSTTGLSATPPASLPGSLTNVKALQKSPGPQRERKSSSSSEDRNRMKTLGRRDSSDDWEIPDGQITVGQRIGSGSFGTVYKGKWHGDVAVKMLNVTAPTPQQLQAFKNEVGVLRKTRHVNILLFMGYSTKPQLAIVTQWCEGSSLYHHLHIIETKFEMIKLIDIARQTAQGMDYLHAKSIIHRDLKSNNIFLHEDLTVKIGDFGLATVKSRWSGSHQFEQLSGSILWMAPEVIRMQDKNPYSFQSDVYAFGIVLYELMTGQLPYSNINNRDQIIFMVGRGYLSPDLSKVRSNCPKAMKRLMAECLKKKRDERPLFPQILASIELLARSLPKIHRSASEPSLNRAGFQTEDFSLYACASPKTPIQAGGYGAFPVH

Structure (SMILES) | IC50
CCc1cccc(C(=O)Nc2ccc(C)c(NC(=O)c3ccc4nccnc4c3)c2)c1 [Example 11, N-{5-[(3-Ethylbenzoyl)amino]-2-methylphenyl}quinoxaline-6-carboxamide] | 0.742 µM
CCCOc1cccc(C(=O)Nc2ccc(C)c(NC(=O)c3ccc4nccnc4c3)c2)c1 [Example 12, N-{2-Methyl-5-[(3-propoxybenzoyl)amino]phenyl}quinoxaline-6-carboxamide] | 0.02 µM
